From US20130079345A1, “[…] ACTIVE DISUBSTITUTED TRIAZINE DERIVATIVES” (BAYER INTELLECTUAL PROPERTY GMBH, priority 2010, published 2013)
Structures can show the parent of a compound that is named as a salt.

Legend:
[1] = test system: NF-kappaB reporter gene activation in HEK293 cells; test: NF-kappaB reporter assay; format: cell-based; settings: Homo sapiens, 20 ng/ml TNF alpha, 5 h
Description: Cells were maintained in RPMI cell culture medium+glutamine (PAN Biotech GmbH, Aidenbach, Germany) supplemented with 10% fetal calf serum (PAA Laboratories GmbH, Pasching, Austria) and grown at 37° C., 5% CO2. HEK293 cells grown to 50% confluence were transfected with the Amaxa® Cell Line Nucleofector® Kit V (Lonza, Basel, Switzerland, catalog #VCA-1003). Transfections were performed according to manufacturer's optimized protocol for transfection of HEK293 cells. In brief, 2×10^5 cells were transfected with 5 μg highly purified plasmid DNA. Cells were transfected with a NF-kappa B reporter plasmid (pNFkBluc), pTALluc for control, or pMAXGFP for transfection control. After transfection, cells were taken up in 500 μL RPMI1640 cell culture medium, incubated for 1 h at 37° C., and 4.5 ml DMEM without phenol red were added per transfection. Transfected cells were seeded in 96 well plates (Greiner Bio-One, Frickenhausen, Germany, catalog #655098) with 100 μL cell suspension per well and incubated for 48 h. To each well, 100 μL DMEM with 2× concentrated compound diluted from 10 mM DMSO stocks, or 100 μL DMEM with 0.4% DMSO for control wells, was added. The compounds of general formula (I) summarized in Table 6 were used in this assay. Cells were stimulated with 20 ng/ml TNF alpha, and plates were incubated for 5 h at 37° C./5% CO2. Cell culture supernatants were removed to leave 100 μl medium per well, followed by addition of 100 μl Bright Glo luciferase assay reagent (Promega, Madison, Wis., USA, catalog #E2620), and shaking for 5 minutes in the dark. Luminescence was measured with a Victor Photospectrometer (Perkin Elmer, Waltham, Mass., USA). […], values were calculated with the software Excel Fit (IDBS, Guildford, UK) from 2-fold dilution series comprising at least 10 concentrations in duplicates.

[2] = test system: RNA Polymerase II Ser2 phosphorylation (cellular CDK9 activity) in HCT-116 cells; test: RNA-Polymerase II Ser2 cellular phosphorylation assay; format: cell-based; settings: Homo sapiens, normalized with tubulin
Description: HCT-116 cells (DSMZ, Braunschweig, Germany) were maintained in Mc Coy's cell culture medium+glutamine (PAN Biotech GmbH, Aidenbach, Germany) supplemented with 10% fetal calf serum (PAA Laboratories GmbH, Pasching, Austria) and grown at 37° C., 5% CO2. For the cellular phosphorylation assay, cells were seeded with 2×10^5 cells/well/1 ml in 24-well plates (Greiner Bio—One, Frickenhausen, Germany; catalog #662160). The compounds of general formula (I) summarized in Table 6 were diluted from a 10 mM DMSO stock solution 1:10 in a total volume of 15 μL DMSO. After overnight incubation at 37° C./5% CO2, 1.5 μL of a compound diluted in DMSO was added to each sample well. Wells with cells and 0.15% DMSO in culture medium were used as positive controls, wells without cells and 0.15% DMSO in culture medium were used as negative controls. The cells were incubated with the compounds for 72 h at 37° C./5% CO2. Before lysis, cells were washed with phosphate buffered saline. Phosphorylation of RNA Polymerase II Ser2 and tubulin levels for normalization were analyzed afterwards with the Multi-Array technology (Meso Scale Discovery, Gaithersburg, Md., USA), a combination of antibody coupled electrochemiluminescence detection and patterned arrays. Manufacturer's instructions were followed and all solutions were purchased from Meso Scale Discovery. In brief, cells were lysed by 30 min incubation in CLB1 lysis buffer (Zeptosens, Witterswil, Switzerland; 60 μL per well), and supernatants were cleared by centrifugation. For analysis of RNA Polymerase II Ser2-phosphorylation, lysates were diluted 1:50 with Meso Scale Lysis Buffer supplemented with phosphatase- and protease-inhibitors, and 25 µL of each sample was pipetted in a well of a MSD Multi-Array 96-Well Plate Sector® Imager High Bind Plate (Meso Scale Discovery; catalog #L15XB-3/L11XB-3), and incubated for 2 h at room temperature. […] Meso Scale Tris Wash Buffer supplemented with 3% w/v Meso Scale Blocker A were added per well, then plates were sealed and incubated 1 h with vigorous shaking. Plates were washed with 1× Tris Wash Buffer (10× Meso Scale Wash Buffer diluted 1:10 in destilled water), 25 μL of antibody solution was added (CTD7 3E10 antibody from Helmholtz Zentrum Munich, Germany, diluted 1:100 in Meso Scale Tris Wash Buffer supplemented with 1% w/v Meso Scale Blocker A), and plates were washed three times in 1× Tris Wash Buffer. 25 μL of MSD® SULFO-TAG™ Goat-Anti-Rat-Antibody (Meso Scale Discovery, catalog #R^32AH-1, diluted 1:125 in Tris Wash Buffer with 1% (w/v) blocker A) were added per well, plates were sealed and incubated with vigorous shaking for 1 h at room temperature. Finally, plates were washed three times with Tris Wash Buffer, 150 μl 2× Read Buffer (Meso Scale Discovery) were added per well and plates were analyzed immediately in a Sector Imager from Meso Scale Discovery. For determination of tubulin protein levels, samples were analyzed with the protocol for RNA Polymerase II Ser2-phosphorylation, with an anti-tubulin antibody (rabbit; BIODESIGN International, catalog #T59840R, diluted 1:100) and a MSD® SULFO-TAG™ […] (Meso Scale Discovery, catalog #R^32AH-1, diluted 1:125). RNA Polymerase II Ser2 phosphorylation was normalized with tubulin protein levels, and EC50 values were calculated with the software XLFit (IDBS, Guildford, UK) from 2-fold dilution series comprising 6 concentrations in duplicates.

Compound | IC50 [1] | IC50 [2]
NS(=O)(=O)Cc1cccc(Nc2ncnc(-c3ccccc3Oc3ccccc3)n2)c1 [Compound B14, 1-(3-{[4-(2-phenoxyphenyl)-1,3,5-triazin-2-yl]amino}phenyl)methanesulfonamide] | 3.96 µM | 14.5 µM
NS(=O)(=O)Cc1cccc(Nc2ncnc(-c3ccccc3OCc3ccccc3)n2)c1 [B13′, 3-[(4-(2-Benzyloxyphenyl)-1,3,5-triazin-2-yl)amino]benzenemethanesulfonamide trifluoroacetic acid salt] | 0.36 µM | –
COc1cnccc1-c1ncnc(Nc2cccc(CS(N)(=O)=O)c2)n1 [Compound B19, 3-[(4-(3-Methoxypyridin-4-yl)-1,3,5-triazin-2-yl)amino]benzenemethanesulfonamide] | 19.9 µM | 15.5 µM
COc1ccccc1-c1ncnc(Nc2cccc(NS(C)(=O)=O)c2)n1 [Compound K1, N-[3-((4-(2-Methoxyphenyl)-1,3,5-triazin-2-yl)amino)phenyl]-methanesulfonamide] | 5.52 µM | –
COc1cc(F)ccc1-c1ncnc(Nc2cccc(CCS(N)(=O)=O)c2)n1 [Compound D2, 2-[3-((4-(4-Fluoro-2-methoxyphenyl)-1,3,5-triazin-2-yl)amino)phenyl]ethanesulfonamide] | 1.63 µM | 10.8 µM
CCCS(=O)(=O)Nc1cccc(Nc2ncnc(-c3ccccc3OC)n2)c1 [Compound L1, N-[3-((4-(2-Methoxyphenyl)-1,3,5-triazin-2-yl)amino)phenyl]-propanesulfonamide] | 6.53 µM | > 30 µM
COc1ccccc1-c1ncnc(Nc2cccc(CS(N)(=O)=O)c2)n1 [B1′, 3-[(4-(2-Methoxyphenyl)-1,3,5-triazin-2-yl)amino]benzenemethanesulfonamide trifluoroacetic acid salt] | 3.56 µM | 10.9 µM
NS(=O)(=O)Cc1cccc(Nc2ncnc(-c3ccccc3OCc3ccncc3)n2)c1 [Compound B16, 3-[(4-(2-((4-Pyridinyl)methoxy)phenyl)-1,3,5-triazin-2-yl)amino]benzenemethanesulfonamide] | 0.96 µM | 11.9 µM
COc1ccccc1-c1ncnc(Nc2ccccc2)n1 [Compound P1, 4-(2-Methoxyphenyl)-N-phenyl-1,3,5-triazine-2-amine] | 18.8 µM | –
CCOc1ccccc1-c1ncnc(Nc2cccc(CS(N)(=O)=O)c2)n1 [Compound B12, 3-[(4-(2-Ethoxyphenyl)-1,3,5-triazin-2-yl)amino]benzenemethanesulfonamide] | 3.67 µM | 17.5 µM
COc1ccccc1-c1ncnc(Nc2cccc([N+](=O)[O-])c2)n1 [Compound H1, 4-(2-Methoxyphenyl)-N-(3-nitrophenyl)-1,3,5-triazine-2-amine] | 2.67 µM | –
COc1cc(F)ccc1-c1ncnc(Nc2cccc(CS(N)(=O)=O)c2)n1 [B2″, 1-(3-{[4-(4-fluoro-2-methoxyphenyl)-1,3,5-triazin-2-yl]amino}phenyl)methanesulfonamide trifluoroacetic acid salt] | 1.6 µM | 3.64 µM
COc1cccc(F)c1-c1ncnc(Nc2cccc(CS(N)(=O)=O)c2)n1 [Compound B4, 3-[(4-(6-Fluoro-2-methoxyphenyl)-1,3,5-triazin-2-yl)amino]benzenemethanesulfonamide] | 9.71 µM | 49.8 µM
COc1ccccc1-c1ncnc(Nc2cccc(S(N)(=O)=O)c2)n1 [C1′, 3-[(4-(2-Methoxyphenyl)-1,3,5-triazin-2-yl)amino]benzenesulfonamide trifluoroacetic acid salt] | 1.47 µM | 2.87 µM
COc1ccccc1-c1ncnc(Nc2cccc(CCS(N)(=O)=O)c2)n1 [Compound D1, 2-[3-((4-(2-Methoxyphenyl)-1,3,5-triazin-2-yl)amino)phenyl]ethanesulfonamide] | 4.98 µM | –
COc1ccc(F)cc1-c1ncnc(Nc2cccc(CS(N)(=O)=O)c2)n1 [Compound B3, 3-[(4-(5-Fluoro-2-methoxyphenyl)-1,3,5-triazin-2-yl)amino]benzenemethanesulfonamide] | 2.47 µM | 9.62 µM
COc1cc(Cl)ccc1-c1ncnc(Nc2cccc(CS(N)(=O)=O)c2)n1 [Compound B6, 3-[(4-(4-Chloro-2-methoxyphenyl)-1,3,5-triazin-2-yl)amino]benzenemethanesulfonamide] | 2.49 µM | 15.3 µM
